≈ marks a conversion by molar mass, not a printed value. Where “and” joins values, the source holds several entries; their conditions need not be identical. Equal values may be shown once. Read-outs that look alike come from different tables or passages of the source.

The test system of data set [1] is M. tuberculosis H37Rv. Kind of data set: Dose-response growth inhibition (broth microdilution). The data set is classed as cell-based. The following applies: Mycobacterium tuberculosis, 168 h, M. tuberculosis H37Rv, 7 days; for MIC50: concentration that inhibits 50% of growth, read-out: MIC50; for MIC90: concentration that inhibits 90% of growth, read-out: MIC90.
Data set [2] relates to M. abscessus Bamboo. Described as above. The following applies: Mycobacteroides abscessus, 72 h, M. abscessus Bamboo, 3 days; for MIC50: read-out: MIC50; for MIC90: read-out: MIC90. The data set is classed as cell-based, Mycobacterium abscessus.
The test system of data set [3] is M. avium 11. The description is as above. In kind it is cell-based, Mycobacterium avium. Conditions: for MIC50: read-out: MIC50.
In data set [4] the test system is M. tuberculosis. Also noted: method as in http://www.pathogenbox.org/. Conditions: as reported by MMV, ref http://www.pathogenbox.org/; cited from earlier work.
For data set [5] the following is noted: rat, in vivo, cited from earlier work.
Data set [6] deals with M. abscessus Bamboo. As to the kind of experiment: Bactericidal assay (CFU, fold kill). In kind it is cell-based, Mycobacterium abscessus. Conditions: 10^7 CFU/mL exposed to MIC90 for 3 days, CFU vs starting inoculum.
For data set [7], the system named is M. avium 11. Kind of data set: Bactericidal assay (CFU, fold kill). In kind it is cell-based, Mycobacterium avium. The following applies: for Fold kill at MIC90: 10^7 CFU/mL exposed to MIC90 for 4 days, CFU vs starting inoculum.
In data set [8] the test system is M. avium. The following applies: cited from earlier work.
Data set [9] deals with M. abscessus. Conditions: cited from earlier work.
Data set [10] has as its system M. abscessus Bamboo. Kind of data set: Single point growth inhibition screening assay. In kind it is cell-based, Mycobacterium abscessus. The following applies: 20 μM, 3 days.
Data set [11] has as its system M. avium 11. As to the kind of experiment: Single point growth inhibition screening assay. In kind it is cell-based, Mycobacterium avium. Conditions: M. avium 11, 20 μM, 4 days.
The mark [12] stands for this setting: Mycobacterium avium, 96 h, M. avium 11, 4 days.
The mark [13] stands for this setting: Mycobacterium avium, 96 h, M. avium 11, 4 days, read-out: MIC90.
The mark [14] stands for this setting: ref Brown-Elliott et al., 2003, Cavusoglu et al., 2007, Aziz et al., 2017.

`COc1ccc2nccc(NC(=O)C3CCN(CCc4ccc(Cl)cc4)CC3)c2n1` [MMV688844]: the MIC50 in data set [1] was 0.2 µM (≈ 0.085 µg/mL); in [2], 4.5 µM (≈ 1.91 µg/mL); in [3] (setting [12]), 2 µM (≈ 0.85 µg/mL). The MIC90 in data set [1] was 2.8 µM (≈ 1.19 µg/mL); in [2] it was 11 µM (≈ 4.67 µg/mL); in [3] (Mycobacterium avium, 11, read-out: Concentration at which 80% growth inhibition was achieved (printed in MIC90 column)) it was 6 µM (≈ 2.55 µg/mL); in data set [3] (setting [13]), over 50 µM. The “Reported MIC” value in data set [4] is 0.4 µM. In addition, in data set [5] (iv, 1 mg/kg), the AUCinf is 167 ng·h/mL. In addition, the AUClast in [5] (iv, 1 mg/kg) is 164 ng·h/mL. Further, in data set [5] (iv, 1 mg/kg), the C0 is on record as 116 ng/mL. Moreover, in data set [5] (iv, 1 mg/kg), the Cl is 102 mL/min/kg. The “Fold kill at MIC90” value in [6] was determined as 100 fold. In addition, the “Fold kill (Fold kill at MIC90)” value in [7] (at 6 μM (80% growth inhibition), MIC90 not reached) was “NK^# (NK, “no kill,” i.e., CFU reduction < 10-fold at MIC90)”.
For the compound `O=C(N[C@H](Cc1ccccc1)C(=O)Nc1ccccc1N1CCOCC1)c1cccs1` [MMV688845], in data set [1], the MIC50 was under 0.2 µM and the MIC90 came out at 1.7 µM (≈ 0.74 µg/mL). Moreover, in data set [2], the MIC50 was found to be 1.5 µM (≈ 0.653 µg/mL) and the MIC90 came to 7 µM (≈ 3.05 µg/mL). Also, the MIC50 in [3] (setting [12]) came to 0.6 µM (≈ 0.261 µg/mL). The MIC90 in data set [3] (setting [13]) was 3 µM (≈ 1.31 µg/mL). In addition, in data set [4], the “Reported MIC” value was 1.2 µM. In data set [5] (iv, 1 mg/kg), the AUCinf is given as 174 ng·h/mL, the AUClast is recorded as 171 ng·h/mL, the C0 is listed as 716 ng/mL and the Cl was 96.3 mL/min/kg. For the same compound, in [5] (po, 5 mg/kg), the AUClast is reported as 3.95 ng·h/mL and the tmax is 22.5 min. In addition, in data set [5], the “%F” value is given as under 1%. The “Fold kill at MIC90” value in [6] is on record as 10 fold. Moreover, in data set [7], the “Fold kill at MIC90” value is on record as “NK (NK, “no kill,” i.e., CFU reduction < 10-fold at MIC90)”.
On to `CC(C)=CCC/C(C)=C/CNCCNC1C2CC3CC(C2)CC1C3` (centres unmarked) [SQ109], for which the MIC in data set [8] (ref Sacksteder et al., 2012) was 4–16 mg/L and 12–48 μM; in data set [9] (ref Sacksteder et al., 2012) it was 4–16 mg/L and 12–48 μM.
As for `COc1nc2ccc(Br)cc2cc1[C@@H](c1ccccc1)[C@@](O)(CCN(C)C)c1cccc2ccccc12` [bedaquiline], the “Activity in primary screen (hit = equal or more than 80% growth inhibition)” value in [10] and in data set [11] was “showed activity” throughout.
Regarding `CC[C@H]1OC(=O)[C@H](C)[C@@H](O[C@H]2C[C@@](C)(OC)[C@@H](O)[C@H](C)O2)[C@H](C)[C@@H](O[C@@H]2O[C@H](C)C[C@H](N(C)C)[C@H]2O)[C@](C)(OC)C[C@@H](C)C(=O)[C@H](C)[C@@H](O)[C@]1(C)O` [clarithromycin, reference compound], the “Concentration required to reduce CFU 10-fold, relative to MIC90” value in data set [8] (ref Heifets et al., 1992) is on record as “up to 64 times”; in data set [9] (ref Aziz et al., 2017), “up to 100 times”. The MIC50 in [2] and in [3] (setting [12]) was under 0.2 µM throughout. Besides, the results for the MIC90 in [2] and in data set [3] (setting [13]) were 0.5 µM (≈ 0.374 µg/mL) and 0.6 µM (≈ 0.449 µg/mL), respectively. The “Fold kill at MIC90” value in data set [6] is listed as “NK (NK, “no kill,” i.e., CFU reduction < 10-fold at MIC90)”; in [7], “NK (NK, “no kill,” i.e., CFU reduction < 10-fold at MIC90)”.
With `CC(C)/N=c1\cc2n(-c3ccc(Cl)cc3)c3ccccc3nc-2cc1Nc1ccc(Cl)cc1` [clofazimine], the “Activity in primary screen (hit = equal or more than 80% growth inhibition)” value in data set [11] is reported as “M. avium-specific hits”.
As to `C[C@]1(COc2ccc(N3CCC(Oc4ccc(OC(F)(F)F)cc4)CC3)cc2)Cn2cc([N+](=O)[O-])nc2O1` [delamanid], the “Activity in primary screen (hit = equal or more than 80% growth inhibition)” value in [11] is given as “M. avium-specific hits”.
Consider `C[C@@H](O)[C@H]1C(=O)N2C(C(=O)O)=C(SCCN=CN)C[C@H]12` [imipenem], for which, in [9] (ref Lavollay et al., 2014), the MIC result was “around 27 μM and ~8 mg/L”.
Take `C[C@H]1COc2c(N3CCN(C)CC3)c(F)cc3c(=O)c(C(=O)O)cn1c23` [levofloxacin]: the “Activity in primary screen (hit = equal or more than 80% growth inhibition)” value in data set [10] and in data set [11] was “showed activity” each time.
Take `CC(=O)NC[C@H]1CN(c2ccc(N3CCOCC3)c(F)c2)C(=O)O1` [linezolid]: the MIC90 in [8] (setting [14]) is 22 µM (≈ 7.42 µg/mL); in [9] (setting [14]), 36 µM (≈ 12.1 µg/mL).
As for `OC(c1cc(C(F)(F)F)nc2c(C(F)(F)F)cccc12)C1CCCCN1` (centres unmarked) [mefloquine], the “Activity in primary screen (hit = equal or more than 80% growth inhibition)” value in data set [11] was “M. avium-specific hits”.
Regarding `CO[C@H]1/C=C/O[C@@]2(C)Oc3c(C)c(O)c4c(O)c(c(/C=N/N5CCN(C)CC5)c(O)c4c3C2=O)NC(=O)/C(C)=C\C=C\[C@H](C)[C@H](O)[C@@H](C)[C@@H](O)[C@@H](C)[C@H](OC(C)=O)[C@@H]1C` [rifampicin], the “Activity in primary screen (hit = equal or more than 80% growth inhibition)” value in data set [11] was “M. avium-specific hits”. Besides, the MIC in [9] (ref Aziz et al., 2017) was at least 37 µM.
Consider `[H]/N=C(/N)N[C@H]1[C@H](O)[C@@H](O)[C@H](O[C@@H]2O[C@@H](C)[C@](O)(C=O)[C@H]2O[C@@H]2O[C@@H](CO)[C@H](O)[C@@H](O)[C@@H]2NC)[C@@H](N/C(N)=N\[H])[C@@H]1O` [streptomycin], for which the “Activity in primary screen (hit = equal or more than 80% growth inhibition)” value in data set [11] is listed as “M. avium-specific hits”.

These data come from article PMC5559473, “Screening of TB Actives for Activity against Nontuberculous Mycobacteria Delivers High Hit Rates” (Frontiers in Microbiology, 2017).
